# According to paper PMC7356761 (Molecules, 2020):
# Values joined by “and” are separate entries in the source; they are usually repeats but may differ in a detail not shown here. Equal values may be shown once.
# Assays:
# [1] = tested on: H1975 cells (L858R/T790M active mutant EGFR); assay: Cellular uptake study, H1975; format: cell-based, human
# Protocol: 3.8. Cellular Uptake Studies
# Then, the cell culture was incubated in a serum-free medium containing [^125I]10 (3.7 kBq/well) for 4 h. The medium from each well was removed and the cells were washed with 1 mL of ice-cold PBS. Finally, all cell fractions were lysed twice with 0.5 mL of 1 M NaOH aqueous solution. The radioactivity of every fraction was determined by an auto well gamma counter. Total cell protein was determined using the Bicinchoninic Acid (BCA) Protein Assay Kit (Nacalai) protocol, which uses bovine serum albumin as a standard reference. […]. All data were expressed as percent dose per milligram of protein (% dose/mg protein) ± SD.
# [2] = Biodistribution in normal ddY mice; format: in vivo, mouse
# Protocol: (§1) Male ddY mice (27–30 g, 6 weeks old) and female BALB/c nu/nu mice (12–17 g, 4 weeks old) were purchased from Japan SLC Inc. (Hamamatsu, Japan). The mice were housed in a cage with free access to food and water maintained at a constant temperature (23–25 °C) with a 12 h light/dark cycle. […] The tumor reached palpable size 2- and 3-weeks post-inoculation. Animal experiments were conducted in accordance with laboratory guidelines for the care and use of animals of Kanazawa University. The animal handling protocol was approved by the Kanazawa University Animal Care Committee (approval number: AP-163766). 3.10. Biodistribution Studies Mice were injected intravenously via the lateral tail vein with a saline solution of [^125I]10 (25 kBq, 100 μL) containing 1% tween-80 and 10% ethanol. The ddY mice were sacrificed at 10 min, 1, 4 and 24 h; meanwhile, the tumor-bearing mice were sacrificed at 1 and 4 h post injection. The selected tissues and organs were collected and weighed and their radioactivity was measured using an auto well gamma counter. […] The mice were sacrificed 1 h after the administration of radiotracer. The biodistribution data are expressed as percent injected dose per gram of tissue (% ID/g) along with the SD.
# H1975 tumor = assay: Biodistribution in tumor-bearing mice, H1975 tumor; format: in vivo, mouse; conditions: for effect of CO-1686 pretreatment on accumulation in H1975 tumor: excess dose CO-1686 (30 mg/kg i.p.) 1 h prior
# Protocol: as §1
structure (smiles),measurement,setting,value
C=CC(=O)Nc1cc([125I])cc(Nc2nc(Nc3ccc(N4CCN(C(C)=O)CC4)cc3OC)ncc2C(F)(F)F)c1 [[^125I]10],cell uptake,"[1]; H1975, 4 h incubation",101.52 % dose/mg protein
same,cell uptake with blocking,"[1]; H1975, excess CO-1686 (100 µM)",45.61 % dose/mg protein
same,effect of gefitinib blocking on accumulation,"[1]; H1975, gefitinib 100 µM",did not reduce
same,radiotracer excreted in feces,[2]; 24 h after injection,~70%
same,"Biodistribution, Blood","[2]; i.v., 10 min",1.06 (0.19) % ID/g tissue
same,"Biodistribution, Bone","[2]; i.v., 10 min",1.16 (0.21) % ID/g tissue
same,"Biodistribution, Brain","[2]; i.v., 10 min",0.11 (0.02) % ID/g tissue
same,"Biodistribution, Heart","[2]; i.v., 10 min",3.11 (0.64) % ID/g tissue
same,"Biodistribution, Kidney","[2]; i.v., 10 min",7.48 (1.55) % ID/g tissue
same,"Biodistribution, Large intestine","[2]; i.v., 10 min",0.57 (0.04) % ID/g tissue
same,"Biodistribution, Liver","[2]; i.v., 10 min",26.69 (0.81) % ID/g tissue
same,"Biodistribution, Lung","[2]; i.v., 10 min",4.47 (1.39) % ID/g tissue
same,"Biodistribution, Muscle","[2]; i.v., 10 min",1.40 (0.16) % ID/g tissue
same,"Biodistribution, Pancreas","[2]; i.v., 10 min",1.93 (0.37) % ID/g tissue
same,"Biodistribution, Small intestine","[2]; i.v., 10 min",9.46 (2.19) % ID/g tissue
same,"Biodistribution, Spleen","[2]; i.v., 10 min",2.14 (0.50) % ID/g tissue
same,"Biodistribution, Stomach","[2]; i.v., 10 min",3.52 (2.70) % ID/organ
same,"Biodistribution, Blood","[2]; i.v., 1 h",0.49 (0.05) % ID/g tissue
same,"Biodistribution, Bone","[2]; i.v., 1 h",0.50 (0.22) % ID/g tissue
same,"Biodistribution, Brain","[2]; i.v., 1 h",0.05 (0.02) % ID/g tissue
same,"Biodistribution, Heart","[2]; i.v., 1 h",0.79 (0.13) % ID/g tissue
same,"Biodistribution, Kidney","[2]; i.v., 1 h",3.76 (0.40) % ID/g tissue
same,"Biodistribution, Large intestine","[2]; i.v., 1 h",0.53 (0.08) % ID/g tissue
same,"Biodistribution, Liver","[2]; i.v., 1 h",18.57 (2.72) % ID/g tissue
same,"Biodistribution, Lung","[2]; i.v., 1 h",1.33 (0.08) % ID/g tissue
same,"Biodistribution, Muscle","[2]; i.v., 1 h",0.44 (0.05) % ID/g tissue
same,"Biodistribution, Pancreas","[2]; i.v., 1 h",0.99 (0.26) % ID/g tissue
same,"Biodistribution, Small intestine","[2]; i.v., 1 h",23.96 (2.18) % ID/g tissue
same,"Biodistribution, Spleen","[2]; i.v., 1 h",0.90 (0.17) % ID/g tissue
same,"Biodistribution, Stomach","[2]; i.v., 1 h",5.10 (1.18) % ID/organ
same,"Biodistribution, Blood","[2]; i.v., 4 h",0.33 (0.07) % ID/g tissue
same,"Biodistribution, Bone","[2]; i.v., 4 h",0.29 (0.11) % ID/g tissue
same,"Biodistribution, Brain","[2]; i.v., 4 h",0.03 (0.01) % ID/g tissue
same,"Biodistribution, Heart","[2]; i.v., 4 h",0.35 (0.09) % ID/g tissue
same,"Biodistribution, Kidney","[2]; i.v., 4 h",2.37 (0.17) % ID/g tissue
same,"Biodistribution, Large intestine","[2]; i.v., 4 h",53.44 ± 6.73 % ID/g tissue and 53.44 (6.73) % ID/g tissue
same,"Biodistribution, Liver","[2]; i.v., 4 h",7.85 (0.92) % ID/g tissue
same,"Biodistribution, Lung","[2]; i.v., 4 h",0.86 (0.10) % ID/g tissue
same,"Biodistribution, Muscle","[2]; i.v., 4 h",0.13 (0.03) % ID/g tissue
same,"Biodistribution, Pancreas","[2]; i.v., 4 h",0.41 (0.03) % ID/g tissue
same,"Biodistribution, Small intestine","[2]; i.v., 4 h",9.81 (1.03) % ID/g tissue
same,"Biodistribution, Spleen","[2]; i.v., 4 h",0.58 (0.11) % ID/g tissue
same,"Biodistribution, Stomach","[2]; i.v., 4 h",1.38 (0.56) % ID/organ
same,"Biodistribution, Blood","[2]; i.v., 24 h",0.05 (0.01) % ID/g tissue
same,"Biodistribution, Bone","[2]; i.v., 24 h",0.07 (0.05) % ID/g tissue
same,"Biodistribution, Brain","[2]; i.v., 24 h",0.01 (0.01) % ID/g tissue
same,"Biodistribution, Feces","[2]; i.v., 24 h",69.9 % ID
same,"Biodistribution, Heart","[2]; i.v., 24 h",0.09 (0.05) % ID/g tissue
same,"Biodistribution, Kidney","[2]; i.v., 24 h",0.25 (0.01) % ID/g tissue
same,"Biodistribution, Large intestine","[2]; i.v., 24 h",0.34 (0.08) % ID/g tissue
same,"Biodistribution, Liver","[2]; i.v., 24 h",0.80 (0.10) % ID/g tissue
same,"Biodistribution, Lung","[2]; i.v., 24 h",0.26 (0.03) % ID/g tissue
same,"Biodistribution, Muscle","[2]; i.v., 24 h",0.04 (0.04) % ID/g tissue
same,"Biodistribution, Pancreas","[2]; i.v., 24 h",0.10 (0.11) % ID/g tissue
same,"Biodistribution, Small intestine","[2]; i.v., 24 h",0.10 (0.01) % ID/g tissue
same,"Biodistribution, Spleen","[2]; i.v., 24 h",0.08 (0.04) % ID/g tissue
same,"Biodistribution, Stomach","[2]; i.v., 24 h",0.08 (0.02) % ID/organ
same,"Biodistribution, Urine","[2]; i.v., 24 h",4.07 (0.83) % ID/g tissue
same,effect of CO-1686 pretreatment on accumulation in H1975 tumor,H1975 tumor,not inhibited
same,effect of CO-1686 pretreatment on accumulation in H1975 tumor,H1975 tumor; listed as [^125I]ICO1686,not reduced
same,tumor/blood ratio,H1975 tumor; tumor-bearing mice,approximately 1
same,"Biodistribution, H1975 tumor","H1975 tumor; tumor-bearing mice, Blocking (1 h), CO-1686 30 mg/kg i.p. 1 h prior",1.65 (0.64) % ID/g tissue
same,"Biodistribution, H1975 tumor","H1975 tumor; tumor-bearing mice, i.v., 1 h",1.77 (0.43) % ID/g tissue
same,"Biodistribution, H1975 tumor","H1975 tumor; tumor-bearing mice, i.v., 1 h, listed as [^125I]ICO1686",1.77 ± 0.43 % ID/g tissue
same,"Biodistribution, H1975 tumor","H1975 tumor; tumor-bearing mice, i.v., 4 h",0.43 (0.08) % ID/g tissue
